Patent publication US20260130395A1, “Water Dispersible Botanical Compositions” (Aquila Black Limited, priority 2021, published 2026)

Experiment: Stability of cannabinoid compounds and Vitamin E components in Beverage 1 (AB White) by LCMSMS
Assay type: physicochemical
Details: for Stability of Plant-Derived Cannabinoid Compounds in AB White, 8° C.: AB White stored at 8° C.; for Stability of Plant-Derived Cannabinoid Compounds in AB White, 21-25° C.: AB White stored at 21-25° C.
Description: The stability of the plant-derived cannabinoid compounds and Vitamin E components of the beverage stored 8° C. and at room temperature (21-25° C.) were monitored, over a period of 570 days via Liquid Chromatography-tandem Mass Spectrometry [LCMSMS, Agilent 6590, C18, 3×50 mm, 2.7 m (Agilent InfinityLab Poroshell 120 EC-C18), Electrospray Ionization detector]. The LCMSMS was calibrated for 0-1000 ng/ml cannabinoids with the same resin material used in the preparation of the concentrates. At each time period, 100 ml of beverage was diluted with 10 ml of methanol and injected into the LCMSMS for analysis.

## CCCc1cc(O)c2c(c1)OC(C)(C)[C@@H]1CCC(C)=C[C@@H]21 [THCV, delta-9-tetrahydrocannabivarin]
29 days
  Stability of Plant-Derived Cannabinoid Compounds in AB White, 8° C.: 3.52 µg/mL
  Stability of Plant-Derived Cannabinoid Compounds in AB White, 21-25° C.: 3.62 µg/mL
30 days
  Stability of Plant-Derived Cannabinoid Compounds in AB White, 8° C.: 3.59 µg/mL
  Stability of Plant-Derived Cannabinoid Compounds in AB White, 21-25° C.: 3.48 µg/mL
60 days
  Stability of Plant-Derived Cannabinoid Compounds in AB White, 8° C.: 3.58 µg/mL
  Stability of Plant-Derived Cannabinoid Compounds in AB White, 21-25° C.: 3.50 µg/mL
90 days
  Stability of Plant-Derived Cannabinoid Compounds in AB White, 8° C.: 3.56 µg/mL
  Stability of Plant-Derived Cannabinoid Compounds in AB White, 21-25° C.: 3.47 µg/mL
120 days
  Stability of Plant-Derived Cannabinoid Compounds in AB White, 8° C.: 3.56 µg/mL
  Stability of Plant-Derived Cannabinoid Compounds in AB White, 21-25° C.: 3.45 µg/mL
150 days
  Stability of Plant-Derived Cannabinoid Compounds in AB White, 8° C.: 3.55 µg/mL
  Stability of Plant-Derived Cannabinoid Compounds in AB White, 21-25° C.: 3.54 µg/mL
180 days
  Stability of Plant-Derived Cannabinoid Compounds in AB White, 8° C.: 3.59 µg/mL
  Stability of Plant-Derived Cannabinoid Compounds in AB White, 21-25° C.: 3.52 µg/mL
210 days
  Stability of Plant-Derived Cannabinoid Compounds in AB White, 8° C.: 3.44 µg/mL
  Stability of Plant-Derived Cannabinoid Compounds in AB White, 21-25° C.: 3.40 µg/mL
240 days
  Stability of Plant-Derived Cannabinoid Compounds in AB White, 8° C.: 3.56 µg/mL
  Stability of Plant-Derived Cannabinoid Compounds in AB White, 21-25° C.: 3.41 µg/mL
270 days
  Stability of Plant-Derived Cannabinoid Compounds in AB White, 8° C.: 3.47 µg/mL
  Stability of Plant-Derived Cannabinoid Compounds in AB White, 21-25° C.: 3.56 µg/mL
300 days
  Stability of Plant-Derived Cannabinoid Compounds in AB White, 8° C.: 3.46 µg/mL
  Stability of Plant-Derived Cannabinoid Compounds in AB White, 21-25° C.: 3.52 µg/mL
330 days
  Stability of Plant-Derived Cannabinoid Compounds in AB White, 8° C.: 3.52 µg/mL
  Stability of Plant-Derived Cannabinoid Compounds in AB White, 21-25° C.: 3.55 µg/mL
360 days
  Stability of Plant-Derived Cannabinoid Compounds in AB White, 8° C.: 3.50 µg/mL
  Stability of Plant-Derived Cannabinoid Compounds in AB White, 21-25° C.: 3.49 µg/mL
390 days
  Stability of Plant-Derived Cannabinoid Compounds in AB White, 8° C.: 3.47 µg/mL
  Stability of Plant-Derived Cannabinoid Compounds in AB White, 21-25° C.: 3.40 µg/mL
420 days
  Stability of Plant-Derived Cannabinoid Compounds in AB White, 8° C.: 3.49 µg/mL
  Stability of Plant-Derived Cannabinoid Compounds in AB White, 21-25° C.: 3.46 µg/mL
450 days
  Stability of Plant-Derived Cannabinoid Compounds in AB White, 8° C.: 3.44 µg/mL
  Stability of Plant-Derived Cannabinoid Compounds in AB White, 21-25° C.: 3.47 µg/mL
480 days
  Stability of Plant-Derived Cannabinoid Compounds in AB White, 8° C.: 3.44 µg/mL
  Stability of Plant-Derived Cannabinoid Compounds in AB White, 21-25° C.: 3.30 µg/mL
510 days
  Stability of Plant-Derived Cannabinoid Compounds in AB White, 8° C.: 3.34 µg/mL
  Stability of Plant-Derived Cannabinoid Compounds in AB White, 21-25° C.: 3.32 µg/mL
540 days
  Stability of Plant-Derived Cannabinoid Compounds in AB White, 8° C.: 3.32 µg/mL
  Stability of Plant-Derived Cannabinoid Compounds in AB White, 21-25° C.: 3.44 µg/mL
570 days
  Stability of Plant-Derived Cannabinoid Compounds in AB White, 8° C.: 3.30 µg/mL
  Stability of Plant-Derived Cannabinoid Compounds in AB White, 21-25° C.: 3.30 µg/mL
0 days
  Stability of Plant-Derived Cannabinoid Compounds in AB White, 21-25° C.: 3.6 µg/mL
1 days
  Stability of Plant-Derived Cannabinoid Compounds in AB White, 21-25° C.: 3.48 µg/mL
2 days
  Stability of Plant-Derived Cannabinoid Compounds in AB White, 21-25° C.: 3.58 µg/mL
3 days
  Stability of Plant-Derived Cannabinoid Compounds in AB White, 21-25° C.: 3.54 µg/mL
5 days
  Stability of Plant-Derived Cannabinoid Compounds in AB White, 21-25° C.: 3.55 µg/mL
8 days
  Stability of Plant-Derived Cannabinoid Compounds in AB White, 21-25° C.: 3.63 µg/mL
9 days
  Stability of Plant-Derived Cannabinoid Compounds in AB White, 21-25° C.: 3.55 µg/mL
10 days
  Stability of Plant-Derived Cannabinoid Compounds in AB White, 21-25° C.: 3.55 µg/mL
11 days
  Stability of Plant-Derived Cannabinoid Compounds in AB White, 21-25° C.: 3.59 µg/mL
12 days
  Stability of Plant-Derived Cannabinoid Compounds in AB White, 21-25° C.: 3.47 µg/mL
15 days
  Stability of Plant-Derived Cannabinoid Compounds in AB White, 21-25° C.: 3.48 µg/mL
16 days
  Stability of Plant-Derived Cannabinoid Compounds in AB White, 21-25° C.: 3.60 µg/mL
17 days
  Stability of Plant-Derived Cannabinoid Compounds in AB White, 21-25° C.: 3.51 µg/mL
18 days
  Stability of Plant-Derived Cannabinoid Compounds in AB White, 21-25° C.: 3.50 µg/mL
19 days
  Stability of Plant-Derived Cannabinoid Compounds in AB White, 21-25° C.: 3.59 µg/mL
22 days
  Stability of Plant-Derived Cannabinoid Compounds in AB White, 21-25° C.: 3.52 µg/mL
23 days
  Stability of Plant-Derived Cannabinoid Compounds in AB White, 21-25° C.: 3.57 µg/mL
24 days
  Stability of Plant-Derived Cannabinoid Compounds in AB White, 21-25° C.: 3.63 µg/mL
25 days
  Stability of Plant-Derived Cannabinoid Compounds in AB White, 21-25° C.: 3.54 µg/mL
26 days
  Stability of Plant-Derived Cannabinoid Compounds in AB White, 21-25° C.: 3.55 µg/mL
